Earlier results in patent US10918126B2, “Isotopically modified compounds and their use as food supplements” (Retrotope, Inc., priority 2006, dated 2021).
Read-outs that look alike come from different tables or passages of the source.

What was measured:
[1] = target: liver alcohol dehydrogenase (ADH); details: ethanol oxidation by ADH to acetaldehyde
[2] = system: perfused rat liver

(1-R)[1-^2H2]— ethanol
kinetic isotope effect D(V/K) ([1]; pH 6): 3
kinetic isotope effect D(V/K) ([1]; pH 9): 1.5

(1-R)[I—^3H2]— ethanol
kinetic isotope effect T(V/K) ([1]; pH 6): 6.5
kinetic isotope effect T(V/K) ([1]; pH 9): 2.5

deuterated ethanol
mean value of D(V/K) [2]: 2.89
